Results as given in the CheMixHub viscosity set.
± gives the uncertainty stated by the source.

Assay: xn = mol fraction of the nth substance listed

CC(C)C=O + CCCCO
100 kPa
Conditions	viscosity [mPa·s]
294.4 K, x1 = 0.76	8.02 ± 0.11
296.4 K, x1 = 0.6	13.17 ± 0.18
296.9 K, x1 = 0.9	5.36 ± 0.08
314.5 K, x1 = 0.6	8.56 ± 0.12

CCC(O)CO (stereo not given) + CCCCO
viscosity [mPa·s], 100 kPa
Conditions	x2 = 0.101	x2 = 0.2	x2 = 0.302	x2 = 0.4	x2 = 0.5	x2 = 0.501	x2 = 0.601	x2 = 0.701	x2 = 0.801	x2 = 0.901
298.15 K	34.46 ± 0.91	23.34 ± 0.6	17.03 ± 0.42	12.19 ± 0.3	8.818 ± 0.21	–	6.546 ± 0.16	5.014 ± 0.12	3.978 ± 0.091	3.113 ± 0.071
303.15 K	25.85 ± 0.67	17.61 ± 0.44	13.14 ± 0.31	10.08 ± 0.24	7.482 ± 0.18	–	5.629 ± 0.13	4.383 ± 0.1	3.441 ± 0.079	2.757 ± 0.062
308.15 K	19.83 ± 0.5	13.86 ± 0.34	10.42 ± 0.24	8.155 ± 0.19	6.2 ± 0.15	–	4.703 ± 0.11	3.738 ± 0.085	2.982 ± 0.068	2.41 ± 0.054
313.15 K	15.54 ± 0.39	10.92 ± 0.27	8.434 ± 0.19	6.703 ± 0.15	5.179 ± 0.12	–	3.992 ± 0.092	3.217 ± 0.073	2.596 ± 0.058	2.122 ± 0.047
318.15 K	12.35 ± 0.3	8.882 ± 0.21	6.942 ± 0.16	5.58 ± 0.13	–	4.373 ± 0.1	3.419 ± 0.078	2.793 ± 0.063	2.271 ± 0.051	1.874 ± 0.042
323.15 K	9.916 ± 0.24	7.286 ± 0.17	5.744 ± 0.13	4.694 ± 0.11	–	3.724 ± 0.085	2.942 ± 0.067	2.417 ± 0.054	1.989 ± 0.044	1.66 ± 0.037

Nc1ccccc1 + CCCCO
Conditions	viscosity [mPa·s]
298.15 K, 101 kPa, x1 = 0.09983	2.368 ± 0.037
298.15 K, 101 kPa, x1 = 0.1935	2.278 ± 0.035
298.15 K, 101 kPa, x1 = 0.3051	2.249 ± 0.035
298.15 K, 101 kPa, x1 = 0.4055	2.287 ± 0.036
298.15 K, 101 kPa, x1 = 0.4837	2.343 ± 0.036
298.15 K, 101 kPa, x1 = 0.6005	2.474 ± 0.038
298.15 K, 101 kPa, x1 = 0.6946	2.637 ± 0.041
298.15 K, 101 kPa, x1 = 0.8028	2.899 ± 0.044
298.15 K, 101 kPa, x1 = 0.8996	3.231 ± 0.049
303 K, 101.33 kPa, x1 = 0.1	2.031 ± 0.21
303 K, 101.33 kPa, x1 = 0.2	1.975 ± 0.2
303 K, 101.33 kPa, x1 = 0.3	1.951 ± 0.2
303 K, 101.33 kPa, x1 = 0.4	1.938 ± 0.2
303 K, 101.33 kPa, x1 = 0.5	1.962 ± 0.2
303 K, 101.33 kPa, x1 = 0.6	2.013 ± 0.21
303 K, 101.33 kPa, x1 = 0.7	2.186 ± 0.23
303 K, 101.33 kPa, x1 = 0.8	2.342 ± 0.24
303 K, 101.33 kPa, x1 = 0.9	2.751 ± 0.28
303.15 K, 100 kPa, x1 = 0.1195	2.083 ± 0.024
303.15 K, 100 kPa, x1 = 0.2339	1.951 ± 0.023
303.15 K, 100 kPa, x1 = 0.3649	1.857 ± 0.022
303.15 K, 100 kPa, x1 = 0.4693	1.843 ± 0.021
303.15 K, 100 kPa, x1 = 0.5498	1.878 ± 0.022
303.15 K, 100 kPa, x1 = 0.6658	1.994 ± 0.023
303.15 K, 100 kPa, x1 = 0.7945	2.261 ± 0.026
303.15 K, 100 kPa, x1 = 0.9166	2.647 ± 0.031
303.15 K, 101 kPa, x1 = 0.09983	2.049 ± 0.032
303.15 K, 101 kPa, x1 = 0.1935	1.965 ± 0.031
303.15 K, 101 kPa, x1 = 0.3051	1.941 ± 0.03
303.15 K, 101 kPa, x1 = 0.4055	1.965 ± 0.031
303.15 K, 101 kPa, x1 = 0.4837	2.01 ± 0.031
303.15 K, 101 kPa, x1 = 0.6005	2.13 ± 0.033
303.15 K, 101 kPa, x1 = 0.6946	2.248 ± 0.035
303.15 K, 101 kPa, x1 = 0.8028	2.468 ± 0.038
303.15 K, 101 kPa, x1 = 0.8996	2.745 ± 0.042
308.15 K, 101 kPa, x1 = 0.09983	1.8 ± 0.028
308.15 K, 101 kPa, x1 = 0.1935	1.734 ± 0.027
308.15 K, 101 kPa, x1 = 0.3051	1.703 ± 0.027
308.15 K, 101 kPa, x1 = 0.4055	1.722 ± 0.027
308.15 K, 101 kPa, x1 = 0.4837	1.77 ± 0.028
308.15 K, 101 kPa, x1 = 0.6005	1.857 ± 0.029
308.15 K, 101 kPa, x1 = 0.6946	1.971 ± 0.031
308.15 K, 101 kPa, x1 = 0.8028	2.144 ± 0.033
308.15 K, 101 kPa, x1 = 0.8996	2.375 ± 0.037
313.15 K, 100 kPa, x1 = 0.1195	1.605 ± 0.019
313.15 K, 100 kPa, x1 = 0.2339	1.484 ± 0.017
313.15 K, 100 kPa, x1 = 0.3649	1.39 ± 0.02
313.15 K, 100 kPa, x1 = 0.4693	1.364 ± 0.016
313.15 K, 100 kPa, x1 = 0.5498	1.393 ± 0.016
313.15 K, 100 kPa, x1 = 0.6658	1.492 ± 0.017
313.15 K, 100 kPa, x1 = 0.7945	1.709 ± 0.02
313.15 K, 100 kPa, x1 = 0.9166	2.027 ± 0.024
313.15 K, 101 kPa, x1 = 0.09983	1.568 ± 0.025
313.15 K, 101 kPa, x1 = 0.1935	1.5 ± 0.024
313.15 K, 101 kPa, x1 = 0.3051	1.44 ± 0.023
313.15 K, 101 kPa, x1 = 0.4055	1.468 ± 0.024
313.15 K, 101 kPa, x1 = 0.4837	1.529 ± 0.024
313.15 K, 101 kPa, x1 = 0.6005	1.613 ± 0.026
313.15 K, 101 kPa, x1 = 0.6946	1.709 ± 0.027
313.15 K, 101 kPa, x1 = 0.8028	1.861 ± 0.029
313.15 K, 101 kPa, x1 = 0.8996	2.048 ± 0.032

Oc1ccc2ccccc2c1 + CCCCO
viscosity [mPa·s], 101 kPa
Conditions	x1 = 0.04	x1 = 0.08	x1 = 0.12	x1 = 0.16	x1 = 0.2
293.15 K	3.344 ± 0.075	3.751 ± 0.083	4.242 ± 0.093	4.879 ± 0.11	5.596 ± 0.12
303.15 K	2.529 ± 0.058	2.808 ± 0.063	3.17 ± 0.071	3.582 ± 0.08	4.024 ± 0.089
313.15 K	1.974 ± 0.046	2.175 ± 0.05	2.421 ± 0.055	2.751 ± 0.062	3.144 ± 0.07
323.15 K	1.592 ± 0.039	1.712 ± 0.041	1.882 ± 0.044	2.11 ± 0.049	2.374 ± 0.054

CCNCC + CCCCOCCO
viscosity [mPa·s], 100 kPa
Conditions	298.15 K	303.15 K	308.15 K
x2 = 0.0499	0.35 ± 0.1	0.335 ± 0.1	0.31 ± 0.1
x2 = 0.1001	0.417 ± 0.1	0.391 ± 0.1	0.368 ± 0.1
x2 = 0.1508	0.485 ± 0.1	0.45 ± 0.1	0.423 ± 0.1
x2 = 0.2001	0.561 ± 0.1	0.523 ± 0.1	0.492 ± 0.1
x2 = 0.2997	0.758 ± 0.1	0.693 ± 0.1	0.647 ± 0.1
x2 = 0.3995	1.028 ± 0.1	0.933 ± 0.1	0.865 ± 0.1
x2 = 0.5	1.356 ± 0.1	1.212 ± 0.1	1.116 ± 0.1
x2 = 0.5999	1.72 ± 0.1	1.516 ± 0.1	1.389 ± 0.1
x2 = 0.7	2.083 ± 0.1	1.832 ± 0.1	1.673 ± 0.1
x2 = 0.7999	2.407 ± 0.1	2.101 ± 0.1	1.913 ± 0.1
x2 = 0.8997	2.662 ± 0.1	2.319 ± 0.1	2.1 ± 0.1
x2 = 0.9495	2.769 ± 0.1	2.415 ± 0.1	2.181 ± 0.1
